A short description of the series: Hydrolysis rate / drug release rate of the compounds (release of JAK inhibitor, HPLC). The class given is physicochemical. The conditions noted are these: % release of JAK inhibitor from sample in acetonitrile/water=7/3 (v/v), 37° C. constant temperature shaker, sampled days 1-4, HPLC. The method, then:
Analysis Method for Hydrolysis Rate of Compounds of the Present Invention
1. Preparation of Standard Working Curve Solution
About 10 mg of JAK inhibitors (tofacitinib and baricitinib) reference substances were weighed into a 25 mL volumetric flask, acetonitrile/water=7/3 (v/v) was added to dissolve and dilute to the marked volume, serving as a stock solution. The stock solution was diluted with a suitable dilution factor to obtain linear solutions of each concentration: 0.0002 mg/mL, 0.0004 mg/mL, 0.004 mg/mL, 0.04 mg/mL, and 0.08 mg/mL.
About 10 mg of JAK inhibitors (Oclacitinib, Ruxolitinib, Delgocitinib, and Upadacitinib) reference substances were weighed into a 25 mL volumetric flask, acetonitrile/water=7/3 (v/v) was added to dissolve and dilute to the marked volume, serving as a stock solution. The stock solution was diluted with a suitable dilution factor to obtain linear solutions of each concentration: 0.0002 mg/mL, 0.0004 mg/mL, 0.004 mg/mL, 0.04 mg/mL, and 0.08 mg/mL.
2. Preparation of Sample Solution
About 5 mg of the sample (the compound prepared in the present invention) was weighed into a 20 mL volumetric flask, acetonitrile/water=7/3 (v/v) was added to dissolve and dilute to the marked volume, serving as a stock solution. An appropriate amount of HPLC was loaded as the 0-day sample. The test solution was sealed with a sealing film and placed in a 37° C. constant temperature shaker. The test samples were taken at the same time on days 1, 2, 3, and 4 respectively. the release amount of JAK inhibitor in the sample was calculated according to the sample weight and JAK inhibitor standard curve.
3. Calculation Formula % Release of JAK Inhibitor r=100%×((AJAK Inhibitor−b)/a)/((W/20×M2/M1) wherein • AJAK inhibitor is the peak area of JAK inhibitor in the sample chromatogram • b is the intercept of the standard curve M1 is the molecular weight of the sample a is the slope of the standard curve
W is the sample weight (mg) M2 is the molecular weight of the JAK inhibitor
4. Chromatographic Conditions
For the molecule `CCS(=O)(=O)N1CC(CC#N)(n2cc(-c3ncnc4c3ccn4COC3=C(C(=O)Nc4ncc(C)s4)N(C)S(=O)(=O)c4ccccc43)cn2)C1` [Ex. 122, 4-((4-(1-(3-(Cyanomethyl)-1-(ethylsulfonyl)azetidin-3-yl)-1H-pyrazol-4-yl)-7H-pyrrolo [2,3-d]pyrimidin-7-yl)methoxy)-2-methyl-N-(5-methylthiazol-2-yl)-2H-benzo [e] [1, 2] thiazine-3-carboxamide 1,1-dioxide], the “Release Rate (%/day)” value is listed as 15.32 %/day.
For `N#CC[C@H](C1CCCC1)n1cc(-c2ncnc3c2ccn3C(=O)Cc2ccccc2Nc2c(Cl)cccc2Cl)cn1` [Ex. 75, (R)-3-cyclopentyl-3-(4-(7-(2-(2-((2,6-dichlorophenyl)amino)phenyl)acetyl)-7H-pyrrolo [2,3-d]pyrimidin-4-yl)-1H-pyrazol-1-yl) propanenitrile] the value was 10.38 %/day; for `CNS(=O)(=O)C[C@H]1CC[C@H](N(C)c2ncnc3c2ccn3C(=O)C(C)c2cccc(Oc3ccccc3)c2)CC1` (stereo partly drawn) [Ex. 68, N-methyl-1-((trans)-4-(methyl (7-(2-(3-phenoxyphenyl)propanoyl)-7H-pyrrolo [2,3-d]pyrimidin-4-yl)amino)cyclohexyl) methanesulfonamide], 10.6 %/day; for `CNS(=O)(=O)C[C@H]1CC[C@H](N(C)c2ncnc3c2ccn3C(=O)[C@@H](NC(=O)OC(C)(C)C)c2ccccc2)CC1` [Ex. 46, tert-butyl ((S)-2-(4-(methyl ((trans)-4-((N-methylsulfamoyl)methyl)cyclohexyl)amino)-7H-pyrrolo [2,3-d]pyrimidin-7-yl)-2-oxo-1-phenylethyl) carbamate], 25.52 %/day.
Regarding `C[C@@H]1CCN(C(=O)CC#N)C[C@@H]1N(C)c1ncnc2c1ccn2C(=O)[C@@H](NC(=O)OC(C)(C)C)c1ccccc1` [Ex. 16, Tert-butyl ((S)-2-(4-(((3R, 4R)-1-(2-cyanoacetyl)-4-methylpiperidin-3-yl) (methyl)amino)-7H-pyrrolo[2,3-d]pyrimidin-7-yl)-2-oxo-1-phenylethyl)carbamate], the “Release Rate (%/day)” value is 39.31 %/day.
The result for `C[C@@H]1CCN(C(=O)CC#N)C[C@@H]1N(C)c1ncnc2c1ccn2C(=O)Cc1ccccc1Nc1c(Cl)cccc1Cl` [Ex. 9] reads 13.49 %/day; that for `CC(C)(C)OC(=O)N[C@H](C(=O)n1ccc2c(-c3cnn([C@H](CC#N)C4CCCC4)c3)ncnc21)c1ccccc1` [Ex. 80, Tert-butyl ((S)-2-(4-(1-((R)-2-cyano-1-cyclopentylethyl)-1H-pyrazol-4-yl)-7H-pyrrolo [2,3-d]pyrimidin-7-yl)-2-oxo-1-phenylethyl) carbamate], 27.29 %/day.
The result for `CC[C@@H]1CN(C(=O)NCC(F)(F)F)C[C@@H]1c1cnc2cnc3c(ccn3C(=O)C(C)c3cccc(C(=O)c4ccccc4)c3)n12` (stereo partly drawn) [Ex. 126, (3R, 4S)-3-(3-(2-(3-benzoylphenyl)propanoyl)-3H-imidazo [1,2-a]pyrrolo [2,3-e]pyrazin-8-yl)-4-ethyl-N-(2,2,2-trifluoroethyl) pyrrolidine-1-carboxamide] reads 7.80 %/day.
For `CC[C@@H]1CN(C(=O)NCC(F)(F)F)C[C@@H]1c1cnc2cnc3c(ccn3C(=O)[C@@H](C)c3ccc4cc(OC)ccc4c3)n12` [Ex. 131] the value was 3.56 %/day; for `CC(C(=O)OCn1ccc2c(-c3cnn([C@H](CC#N)C4CCCC4)c3)ncnc21)c1ccc(-c2ccccc2)c(F)c1` (stereo partly drawn) [Ex. 100, (4-(1-((R)-2-cyano-1-cyclopentylethyl)-1H-pyrazol-4-yl)-7H-pyrrolo [2,3-d]pyrimidin-7-yl) methyl 2-(2-fluoro-[1, 1′-biphenyl]-4-yl) propanoate], 0.24 %/day.
Turning to `CCS(=O)(=O)N1CC(CC#N)(n2cc(-c3ncnc4c3ccn4C(=O)C(C)c3ccc(CC4CCCC4=O)cc3)cn2)C1` (centres unmarked) [Ex. 22], the “Release Rate (%/day)” value was determined as 2.75 %/day.
As to `CC(C)Cc1ccc([C@H](C)C(=O)OCn2ccc3c(N(C)[C@H]4CN(C(=O)CC#N)CC[C@H]4C)ncnc32)cc1` [Ex. 3], the “Release Rate (%/day)” value is given as 0.05 %/day.
With `CCc1cccc2c3c([nH]c12)C(CC)(CC(=O)n1ccc2c(-c4cnn([C@H](CC#N)C5CCCC5)c4)ncnc21)OCC3` (stereo partly drawn) [Ex. 45, (3R)-3-cyclopentyl-3-(4-(7-(2-(1,8-diethyl-1,3,4,9-tetrahydropyran [3,4-b]indol-1-yl)acetyl)-7H-pyrrolo [2,3-d]pyrimidin-4-yl)-1H-pyrazol-1-yl) propanenitrile], the “Release Rate (%/day)” value came out at 1.93 %/day.
As for `CCS(=O)(=O)N1CC(CC#N)(n2cc(-c3ncnc4c3ccn4C(=O)[C@@H](NC(=O)OC(C)(C)C)c3ccccc3)cn2)C1` [Ex. 26, Tert-butyl (S)-(2-(4-(1-(3-(cyanomethyl)-1-(ethylsulfonyl)azetidin-3-yl)-1H-pyrazol-4-yl)-7H-pyrrolo [2,3-d]pyrimidin-7-yl)-2-oxo-1-phenylethyl) carbamate], the “Release Rate (%/day)” value came out at 36.19 %/day.
For `CNS(=O)(=O)C[C@H]1CC[C@H](N(C)c2ncnc3c2ccn3COC(=O)Cc2ccccc2Nc2c(Cl)cccc2Cl)CC1` [Ex. 92, (4-(Methyl ((trans)-4-((N-methylsulfamoyl)methyl)cyclohexyl)amino)-7H-pyrrolo [2,3-d]pyrimidin-7-yl) methyl 2-(2-((2,6-dichlorophenyl)amino)phenyl) acetate] the value was 0.82 %/day; for `CNS(=O)(=O)CC1CCC(N(C)c2ncnc3c2ccn3C(=O)[C@@H](C)c2ccc3cc(OC)ccc3c2)CC1` (stereo partly drawn) [Ex. 39, 1-((Trans)-4-((7-((S)-2-(6-methoxynaphthalen-2-yl)propanoyl)-7H-pyrrolo [2,3-d]pyrimidin-4-yl) (methyl)amino)cyclohexyl)-N-methyl methanesulfonamide], 10.11 %/day.
The result for `CCS(=O)(=O)N1CC(CC#N)(n2cc(-c3ncnc4c3ccn4COC(=O)[C@@H](C)c3ccc4cc(OC)ccc4c3)cn2)C1` [Ex. 61, Methyl (4-(1-(3-(cyanomethyl)-1-(ethylsulfonyl)azetidin-3-yl)-1H-pyrazol-4-yl)-7H-pyrrolo [2,3-d]pyrimidin-7-yl) (S)-2-(6-methoxynaphthalen-2-yl) propanoate] reads less than 0.01 %/day; that for `CC(C(=O)n1ccc2c(-c3cnn([C@H](CC#N)C4CCCC4)c3)ncnc21)c1cccc(C(=O)c2ccccc2)c1` (stereo partly drawn) [Ex. 32, (3R)-3-(4-(7-(2-(3-benzoylphenyl)propanoyl)-7H-pyrrolo [2,3-d]pyrimidin-4-yl)-1H-pyrazol-1-yl)-3-cyclopentylpropanenitrile], 7.12 %/day; that for `Cc1cccc(Nc2ccccc2C(=O)OCn2ccc3c(N(C)[C@H]4CN(C(=O)CC#N)CC[C@H]4C)ncnc32)c1C` [Ex. 67, (4-(((3R, 4R)-1-(2-cyanoacetyl)-4-methylpiperidin-3-yl) (methyl)amino)-7H-pyrrolo [2,3-d]pyrimidin-7-yl) methyl 2-((2,3-dimethylphenyl)amino) benzoate], 0.02 %/day.
Take `CNS(=O)(=O)C[C@H]1CC[C@H](N(C)c2ncnc3c2ccn3COC(=O)c2ccccc2Nc2cccc(Cl)c2C)CC1` [Ex. 120, (4-(Methyl ((trans)-4-((N-methylsulfamoyl)methyl)cyclohexyl)amino)-7H-pyrrolo [2,3-d]pyrimidin-7-yl) methyl 2-((3-chloro-2-methylphenyl)amino) benzoate]: the “Release Rate (%/day)” value turned out to be 0.42 %/day.
Consider `CC(C)Cc1ccc([C@H](C)C(=O)OCn2ccc3c(-c4cnn([C@H](CC#N)C5CCCC5)c4)ncnc32)cc1` [Ex. 86, (4-(1-((R)-2-cyano-1-cyclopentylethyl)-1H-pyrazol-4-yl)-7H-pyrrolo [2,3-d]pyrimidin-7-yl) methyl (S)-2-(4-isobutylphenyl) propanoate], for which the “Release Rate (%/day)” value is reported as less than 0.01 %/day.
Take `CNS(=O)(=O)C[C@H]1CC[C@H](N(C)c2ncnc3c2ccn3C(=O)C(C)c2ccc(CC3CCCC3=O)cc2)CC1` (stereo partly drawn) [Ex. 44, N-methyl-1-((trans)-4-(methyl (7-(2-(4-((2-oxocyclopentyl)methyl)phenyl)propanoyl)-7H-pyrrolo [2,3-d]pyrimidin-4-yl)amino)cyclohexyl) methanesulfonamide]: the “Release Rate (%/day)” value amounted to 10.18 %/day.
For `COc1ccc2cc([C@H](C)C(=O)n3ccc4c(N(C)[C@H]5CN(C(=O)CC#N)CC[C@H]5C)ncnc43)ccc2c1` [Ex. 6, 3-((3R, 4R)-3-((7-((S)-2-(6-methoxynaphthalen-2-yl)propanoyl)-7H-pyrrolo[2,3-d]pyrimidin-4-yl) (methyl)amino)-4-methylpiperidin-1-yl)-3-oxopropanenitrile] the value was 9.82 %/day.

The values above are taken from US12290519B2, “Anti-inflammatory coupling compound drug, and preparation method therefor and use thereof” (COVAL BIOPHARMA (SHANGHAI) CO., LTD., priority 2021, dated 2025).
